Key:
[1] = test system: small flower umbrella sedge; assay: Test B flooded paddy test; type: in vivo, Cyperus difformis; settings: 1000 g ai/ha, scale 0 to 100 (0 no effect, 100 complete control)
Outline: (§1)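 Greenhouse test; postemergence application to plants at 1–4 leaves (2–18 cm); paddy species at 2 leaves; evaluated visually vs controls at 13–15 days; scale 0–100 (100 = complete control).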

cocklebur = assay: Test B pre-/postemergence herbicide test; type: in vivo, Xanthium strumarium; settings: for Cocklebur plant response rating: postemergence
Outline: (§2)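 Greenhouse pot assay with simultaneous preemergence (treated seed) and postemergence (2–18 cm seedlings) applications of surfactant-containing, non-phytotoxic solvent formulations. Response scored visually 13–15 days later on a 0–100 scale, 100 meaning complete control.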

giant foxtail = assay: Test B pre-/postemergence herbicide test; type: in vivo, Setaria faberi; settings: for Foxtail, Giant plant response rating: postemergence
Outline: (§3)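 Plants compared with untreated controls 13–15 days post-treatment and given a visual 0–100 injury score. Applications: preemergence to seeds; postemergence at 1- to 4-leaf (2–18 cm); paddy species flooded, 2-leaf stage. Vehicle non-phytotoxic, surfactant included.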

wild oat = assay: Test B postemergence herbicide test; type: in vivo, Avena fatua; settings: postemergence
Outline: (§4)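 Read-out: visual comparison with controls, scored 0 to 100, where 100 means complete control and 0 no effect. Formulated chemicals were applied postemergence to plants 2–18 cm tall (1- to 4-leaf), or to flooded-paddy plants at the 2-leaf stage, then held 13 to 15 days under glass.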

morningglory = assay: Test B pre-/postemergence herbicide test; type: in vivo, Ipomoea coccinea; settings: for Morningglory plant response rating: postemergence
Outline: as §2

velvetleaf = assay: Test B pre-/postemergence herbicide test; type: in vivo, Abutilon theophrasti; settings: for Velvetleaf plant response rating: postemergence
Outline: as §3

rice [2] = assay: Test B flooded paddy test; type: in vivo, Oryza sativa; settings: 1000 g ai/ha, scale 0 to 100 (0 no effect, 100 complete control)
Outline: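 Formulated test chemicals went onto postemergence plants measuring 2 to 18 cm, at one to four leaves. For the paddy assay, species had reached two leaves. Scoring took place 13–15 days later by eye, relative to untreated plants, using 0 for no effect up to 100 for full control.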

Surinam grass = assay: Test B pre-/postemergence herbicide test; type: in vivo, Urochloa decumbens; settings: for Surinam Grass plant response rating: postemergence
Outline: as §3

blackgrass = assay: Test B postemergence herbicide test; type: in vivo, Alopecurus myosuroides; settings: postemergence
Outline: as §1

large crabgrass = assay: Test B pre-/postemergence herbicide test; type: in vivo, Digitaria sanguinalis; settings: for Crabgrass, Large plant response rating: postemergence
Outline: as §3

ducksalad [3] = assay: Test C flooded paddy test; type: in vivo, Heteranthera limosa
barnyardgrass [4] = assay: Test B flooded paddy test; type: in vivo, Echinochloa crus-galli; settings: 1000 g ai/ha, scale 0 to 100 (0 no effect, 100 complete control)
Outline: as §1

rice [5] = assay: Test C flooded paddy test; type: in vivo, Oryza sativa
Outline: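 Postemergence sprays applied to plants 2 to 18 cm tall (1- to 4-leaf stage); paddy species grown to 2-leaf stage under flooding. After 12 to 14 days in greenhouse, visual rating versus untreated controls on 0–100 scale (0 no effect, 100 complete control).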

barnyardgrass [6] = assay: Test B pre-/postemergence herbicide test; type: in vivo, Echinochloa crus-galli; settings: for Barnyardgrass plant response rating: postemergence
Outline: as §2

ducksalad [7] = assay: Test B flooded paddy test; type: in vivo, Heteranthera limosa; settings: 1000 g ai/ha, scale 0 to 100 (0 no effect, 100 complete control)
Outline: as §1

pigweed = assay: Test B pre-/postemergence herbicide test; type: in vivo, Amaranthus retroflexus; settings: for Pigweed plant response rating: postemergence
Outline: as §3

corn = assay: Test B pre-/postemergence herbicide test; type: in vivo, Zea mays; settings: for Corn plant response rating: postemergence
Outline: as §3

barnyardgrass [8] = assay: Test C flooded paddy test; type: in vivo, Echinochloa crus-galli
Outline: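 Postemergence sprays were applied to plants 2 to 18 cm tall (1- to 4-leaf stage); in the flooded paddy test, barnyardgrass was grown to the 2-leaf stage. After 12 to 14 days in a greenhouse, injury was visually rated against untreated controls on a 0–100 scale (100 = complete control).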

wheat = assay: Test B postemergence herbicide test; type: in vivo, Triticum aestivum; parameters: key to Wheat plant response rating: 0 = no effect, 100 = complete control; settings: postemergence
Outline: as §4

lambsquarters = assay: Test B pre-/postemergence herbicide test; type: in vivo, Chenopodium album; settings: for Lambsquarters plant response rating: postemergence
Outline: as §3

[9] = test system: smallflower umbrella sedge; assay: Test C flooded paddy test; type: in vivo, Cyperus difformis
[10] = 125 g ai/ha, 0 is no effect, 100 is complete control, preemergence
[11] = 125 g ai/ha, visual rating, scale 0 (no effect) to 100 (complete control)
[12] = 500 g ai/ha, visual rating, 0 = no effect, 100 = complete control, preemergence
[13] = 500 g ai/ha, scale 0 to 100, 0 is no effect, 100 is complete control
[14] = 125 g ai/ha, scale 0 to 100 (0 no effect, 100 complete control)
[15] = 250 g ai/ha, scale of 0 to 100, 0 is no effect, 100 is complete control
[16] = 500 g ai/ha, visual rating after 12 to 14 days, scale 0 to 100 (0 no effect, 100 complete control)

## CCc1nn(C(C)C)nc1C(=O)Nc1cccc(C(=O)N2CC=CC2)c1 [Compound 359]
[1]
  Sedge, Umbrella plant response rating: 80
cocklebur; [10]
  Plant response rating (0 to 100 scale), Cocklebur: 0
cocklebur; [11]
  Cocklebur plant response rating: 10
cocklebur; [12]
  Plant response rating, Cocklebur: 30
cocklebur; [13]
  Cocklebur plant response rating: 30
Giant foxtail; [10]
  Plant response rating (0 to 100 scale), Foxtail, Giant: 60
Giant foxtail; [11]
  Foxtail, Giant plant response rating: 20
Giant foxtail; [12]
  Plant response rating, Foxtail, Giant: 100
Giant foxtail; [13]
  Foxtail, Giant plant response rating: 20
Wild oat; [11]
  Oat, Wild plant response rating: 20
Wild oat; [13]
  Oat, Wild plant response rating: 30
morningglory; [10]
  Plant response rating (0 to 100 scale), Morningglory: 0
morningglory; [11]
  Morningglory plant response rating: 10
morningglory; [12]
  Plant response rating, Morningglory: 50
morningglory; [13]
  Morningglory plant response rating: 10
velvetleaf; [10]
  Plant response rating (0 to 100 scale), Velvetleaf: 0
velvetleaf; [11]
  Velvetleaf plant response rating: 20
velvetleaf; [13]
  Velvetleaf plant response rating: 20
Rice [2]
  Rice plant response rating: 70
Surinam grass; [10]
  Plant response rating (0 to 100 scale), Surinam Grass: 20
Surinam grass; [11]
  Surinam Grass plant response rating: 10
Surinam grass; [12]
  Plant response rating, Surinam Grass: 70
Surinam grass; [13]
  Surinam Grass plant response rating: 10
blackgrass; [11]
  Blackgrass plant response rating: 20
blackgrass; [13]
  Blackgrass plant response rating: 50
Large crabgrass; [10]
  Plant response rating (0 to 100 scale), Crabgrass, Large: 90
Large crabgrass; [11]
  Crabgrass, Large plant response rating: 10
Large crabgrass; [12]
  Plant response rating, Crabgrass, Large: 100
Large crabgrass; [13]
  Crabgrass, Large plant response rating: 20
Ducksalad [3]; 62 g ai/ha, scale 0 to 100
  Ducksalad plant response rating: 40
Ducksalad [3]; [14]
  Ducksalad plant response rating: 80
Ducksalad [3]; [15]
  Ducksalad plant response rating: 85
Ducksalad [3]; [16]
  Plant response rating, Ducksalad: 90
Barnyardgrass [4]
  Barnyardgrass plant response rating: 70
Rice [5]; 62 g ai/ha, scale 0 to 100
  Rice plant response rating: 20
Rice [5]; [14]
  Rice plant response rating: 45
Rice [5]; [15]
  Rice plant response rating: 65
Rice [5]; [16]
  Plant response rating, Rice: 80
Barnyardgrass [6]; [10]
  Plant response rating (0 to 100 scale), Barnyardgrass: 0
Barnyardgrass [6]; [11]
  Barnyardgrass plant response rating: 10
Barnyardgrass [6]; [12]
  Plant response rating, Barnyardgrass: 90
Barnyardgrass [6]; [13]
  Barnyardgrass plant response rating: 10
Ducksalad [7]
  Ducksalad plant response rating: 70
pigweed; [10]
  Plant response rating (0 to 100 scale), Pigweed: 0
pigweed; [11]
  Pigweed plant response rating: 20
pigweed; [12]
  Plant response rating, Pigweed: 100
pigweed; [13]
  Pigweed plant response rating: 50
corn; [10]
  Plant response rating (0 to 100 scale), Corn: 0
corn; [11]
  Corn plant response rating: 10
corn; [12]
  Plant response rating, Corn: 60
corn; [13]
  Corn plant response rating: 10
Barnyardgrass [8]; 62 g ai/ha, scale 0 to 100 (0 no effect, 100 complete control)
  Barnyardgrass plant response rating: 15
Barnyardgrass [8]; [14]
  Barnyardgrass plant response rating: 55
Barnyardgrass [8]; [15]
  Barnyardgrass plant response rating: 75
Barnyardgrass [8]; [16]
  Plant response rating, Barnyardgrass: 75
wheat; [11]
  Wheat plant response rating: 0
wheat; [13]
  Wheat plant response rating: 20
lambsquarters; [10]
  Plant response rating (0 to 100 scale), Lambsquarters: 0
lambsquarters; [11]
  Lambsquarters plant response rating: 40
lambsquarters; [12]
  Plant response rating, Lambsquarters: 100
lambsquarters; [13]
  Lambsquarters plant response rating: 50
[9]; 62 g ai/ha, scale 0 to 100
  Sedge, Umbrella plant response rating: 80
[9]; [14]
  Sedge, Umbrella plant response rating: 90
[9]; [15]
  Sedge, Umbrella plant response rating: 90
[9]; [16]
  Plant response rating, Sedge, Umbrella: 95

Reference: US20060069132A1, “Azolecarboxamide herbicides” (priority 2004, published 2006)
